Laboratory results reported in patent publication US4758580A, “Inhibiting growth of tumors with certain substituted phenoxy dimethyl alkanoic acids, esters or salts” (Yamanouchi Pharmaceutical Co., Ltd., priority 1985, dated 1988).
In brackets after ≈: the same amount, converted by molar mass.

How the values were obtained:
[1] = system: Ehrlich (carcinoma); assay: In vitro cytotoxicity against mouse tumor cells, Ehrlich; assay type: cell-based; conditions: 72 h, Ehrlich (carcinoma), 3 days, 37° C., trypan blue, read-out: IC50
Protocol: (§1) A suspension of cells in a culture medium was transferred into wells in a microplate in an amount of 1×10^5 cells/wall. Test sample diluted with a culture medium was added to the suspension in each well, and the mixture was incubated on the medium at 37° C. for 3 days in atmosphere of air containing 5% carbon dioxide. Thereafter, the incubated cells were recovered from the microplate and the number of live cells was counted by the dye exclusion test using a 0.5% solution of trypan blue and by using a hemocytomer.

[2] = system: L-1210; assay: In vitro cytotoxicity against mouse tumor cells, L-1210; assay type: cell-based; conditions: L1210, 72 h, L-1210, 3 days, 37° C., trypan blue, read-out: IC50
Protocol: as §1

[3] = system: liver cancer (MH-134) cells; assay: Inhibition of spontaneous metastasis (to the lymph node) of liver cancer (MH-134) cells in mice; assay type: in vivo, C3 H/He/SLC mice; conditions: 20th day
Protocol: (a) Inhibition of spontaneous metastasis (to the lymph node) of liver cancer (MH-134) cells in mice
MH-134 tumor cells, 1×10^6, on Day 7 after intraperitoneal transplantation to C3 H/He/SLC mice were transplanted to the right leg. On the 11th day after the transplantation, the right leg portion wherein the cancer cells were transplanted were cut off. The test compounds were administered orally in a definite dose 24 hours after the transplantation. In order to confirm metastasis-inhibiting effect, on 20th day of the transplantation the mice were anatomised to observe the metastasis to the lymph node in the inguinal portion. [formula] Further, the weight of the lymph node metastasis tumor in the inguinal portion of anatomised mice was measured. [formula]

[4] = system: melanoma BL-6; assay: Inhibition of experimental metastasis (to the lung) of melanoma BL-6 in mice; assay type: in vivo, male BDF1 /SLC mice; conditions: 22th day
Protocol: (b) Inhibition of experimental metastasis (to the lung) of melanoma BL-6 in mice
BL-6 cancer cells, 5×10^4, were inoculated into the tail veins of male BDF1 /SLC mice (6 week age) of 6 mice each being grouped in one (13 mice for the control group). The test compounds were administered orally in a definite dose 24 hours after the inoculation. In order to see metastasis-inhibitory effect, on 22th day after the inoculation, the mice were anatomised to observe the metastasis to the lungs. The degree of metastasis was evaluated by the number of pulmonary nodules. [formula] T: Median number of pulmonary nodules of the administered group C: Median number of pulmonary nodules of the control group

[5] = system: ACHN (kidney cancer); assay: In vitro cytotoxicity against human tumor cells, ACHN; assay type: cell-based; conditions: 72 h, 3 days, 37° C., crystalviolet, read-out: IC50
Protocol: (§2) A suspension of cells in a culture medium was transferred into wells in a microplate in an amount of 5×10^4 cells/well. Test sample diluted with a culture medium was added to the suspension in each well, and the mixture was incubated at 37° C. for 3 days in an atmosphere of air containing 5% carbon dioxide. After skimming, sticking cells were dyed which crystalviolet for 10 minutes. After washing with water, 1% sodium lauryl sulfate solution was added to each well, and the absrobancy (optical density) at […] was measured. "% inhibition" was calculated from the following equation. [formula]

[6] = system: Ehrlich ascites tumor; assay: Anti-tumor effect against Ehrlich ascites tumor; assay type: in vivo, ddY/SLC mice
Protocol: Ehlrich tumor cells, 1×10^6, on Day 7 after intraperitoneal transplantation to ddY/SLC mice were intraperitoneally transplanted to ddY/SLC mice (5 week age, male) of 10 mice each being grouped in one. The active component was intraperitoneally administered in a definite dose 24 hours after the transplantation according to the schedule shown in Table 4. An effect of tumor growth inhibition was evaluated by a percentage of the median survival day of the administered group versus that of the control group, according to the following equation.
T: median survival day of the administered group
C: median survival day of the control group

[7] = system: MM-46 solid tumor; assay: Test against mouse mammalian MM-46 solid tumor; assay type: in vivo, C3 H/He/SLC mice; conditions: 1-9 Days
Protocol: MM-46 Tumor cells, 1×10^6, on Day 7 after intraperitoneal transplantation to C3 H/He/SLC mice were subcutaneously transplanted to the left abdomen of C3 H/He/SLC mice (5 week age, male) of 8 mice each being grouped in one (21 mice for the control group). The active component was orally administered in a definite dose 24 hours after the transplantation according to the schedule shown in Table 2. An effect of tumor growth inhibition was compared by measuring the long diameter and short diameter of the tumor on Days 14 and 21 after the transplantation, calculating the tumor size (mm^2) and determining a tumor growth inhibition rate of the active component-administered group to the control group.

[8] = Toxicity test (acute, oral); conditions: mouse, in vivo, ddY mice, male
Protocol: The active component was orally administered to ddY mice (mean body weight of 35 g, male). No example of death was noted up to the dose of 5,000 mg/kg. Accordingly, the acute toxicity of Compound B is greater than 5,000 mg/kg. (Effects)

[9] = system: Bowes (melanoma); assay: In vitro cytotoxicity against human tumor cells, Bowes; assay type: cell-based; conditions: 72 h, Bowes, 3 days, 37° C., crystalviolet, read-out: IC50
Protocol: as §2

[10] = system: MM 46 (mammary cancer); assay: In vitro cytotoxicity against mouse tumor cells, MM 46; assay type: cell-based; conditions: 72 h, 3 days, 37° C., trypan blue
Protocol: as §1

[11] = system: Hela (uterine cancer); assay: In vitro cytotoxicity against human tumor cells, Hela; assay type: cell-based; conditions: 72 h, 3 days, 37° C., crystalviolet
Protocol: as §2

[12] = system: Meth A (methylcholanthrene-induced cancer); assay: In vitro cytotoxicity against mouse tumor cells, Meth A; assay type: cell-based; conditions: 72 h, Meth A, 3 days, 37° C., trypan blue, read-out: IC50
Protocol: as §1

[13] = 100 mg/kg oral, 1, 3, 5, 7, 9, 11, 13 and 15 days
[14] = 200 mg/kg oral, 1, 3, 5, 7, 9, 11, 13 and 15 days
[15] = 400 mg/kg oral, 1, 3, 5, 7, 9, 11, 13 and 15 days
[16] = 200 mg/kg oral, 1, 2, 3, 5, 6, 7, 8, 9 and 10 days
[17] = 400 mg/kg oral, 1, 2, 3, 5, 6, 7, 8, 9 and 10 days
[18] = 100 mg/kg i.p., 1, 3, 6, 8 & 10 Days

## CCOC(=O)C(C)(C)CCCCOc1ccc(OCCCCCn2ccnc2)cc1 [Compound B]
[1]
  IC50: 0.5 µg/mL (≈ 1.2 µM)
[2]
  IC50: 1.9 µg/mL (≈ 4.56 µM)
[3]; [13]
  Growth inhibition of the metastasis tumor: 33.8%
  Metastasis-inhibition rate: 8.5%
[3]; [14]
  Growth inhibition of the metastasis tumor: 79.4%
  Metastasis-inhibition rate: 41.2%
[3]; [15]
  Growth inhibition of the metastasis tumor: 80.4%
  Metastasis-inhibition rate: 73.9%
[4]; [16]
  Pulmonary metastasis-inhibition rate: 50.0%
  The number of pulmonary nodules, median: 10.5
  The number of pulmonary nodules, range: 1-20
[4]; [17]
  Pulmonary metastasis-inhibition rate: 69.0%
  The number of pulmonary nodules, median: 6.5
  The number of pulmonary nodules, range: 1-14
[5]
  IC50: 2.3 µg/mL (≈ 5.52 µM)
[6]; 15 mg/kg i.p., 1-9 Days
  Median Survival Day: 16.0 days
  No. of 40-day Survivors: 0/8
  T/C (median survival): 106%
[6]; 30 mg/kg i.p., 1-9 Days
  Median Survival Day: 22.5 days
  No. of 40-day Survivors: 1/8
  T/C (median survival): 150.0%
[6]; 60 mg/kg i.p., 1-9 Days
  Median Survival Day: 21.5 days
  No. of 40-day Survivors: 2/8
  T/C (median survival): 143.3%
[6]; [18]
  Median Survival Day: 26.5 days
  No. of 40-day Survivors: 2/8
  T/C (median survival): 176.7%
[7]; Day 14, 100 mg/kg p.o.
  Growth Inhibition Rate: 40.4%
  Size of Tumor: 150.1 ± 52.1 mm^2
[7]; Day 14, 200 mg/kg p.o.
  Growth Inhibition Rate: 41.3%
  Size of Tumor: 147.9 ± 56.2 mm^2
[7]; Day 14, 400 mg/kg p.o.
  Growth Inhibition Rate: 47.8%
  Size of Tumor: 131.5 ± 55.2 mm^2
[7]; Day 21, 100 mg/kg p.o.
  Growth Inhibition Rate: 55.8%
  Size of Tumor: 149.4 ± 84.8 mm^2
[7]; Day 21, 200 mg/kg p.o.
  Growth Inhibition Rate: 53.4%
  Size of Tumor: 147.5 ± 65.3 mm^2
[7]; Day 21, 400 mg/kg p.o.
  Growth Inhibition Rate: 53.4%
  Size of Tumor: 157.4 ± 104.0 mm^2
[8]
  LD50: > 5000 mg/kg
[9]
  IC50: 1 µg/mL (≈ 2.4 µM)
[10]
  IC50: 0.7 µg/mL (≈ 1.68 µM)
[11]
  IC50: 2.05 µg/mL (≈ 4.92 µM)
[12]
  IC50: 0.8 µg/mL (≈ 1.92 µM)
